Test: xn = mol fraction of the nth substance listed

CC(C)C[C@H](N)C(=O)[O-].CCCC[P+](CCCC)(CCCC)CCCN + O
333.15 K, 101 kPa, x2 = 0
Settings | electrical conductivity [S/m] | viscosity [mPa·s]
– | 0.0413 | 130.5

CCCCCCCC(=O)[O-].c1c[nH+]c[nH]1 + O
101.3 kPa
Settings | viscosity [mPa·s]
293.15 K, x2 = 0.3042 | 53.53
293.15 K, x2 = 0.4091 | 50.43
293.15 K, x2 = 0.6017 | 39.83
298.15 K, x2 = 0.5119 | 37.4
298.15 K, x2 = 0.7995 | 18.69
303.15 K, x2 = 0.3042 | 34.6
303.15 K, x2 = 0.6643 | 24.26
313.15 K, x2 = 0.1964 | 24.17
313.15 K, x2 = 0.8154 | 10.93
318.15 K, x2 = 0.0989 | 23.17
318.15 K, x2 = 0.3042 | 19.22
318.15 K, x2 = 0.6017 | 16.16
318.15 K, x2 = 0.8154 | 9.92
323.15 K, x2 = 0 | 25.33
323.15 K, x2 = 0.0989 | 19.77
323.15 K, x2 = 0.3042 | 16.85
323.15 K, x2 = 0.8154 | 9.3

CCCCCCCCCCCCCCCC[P+](CCCC)(CCCC)CCCC.[Br-] + O
300 K, 101 kPa
Settings | electrical conductivity [S/m]
x2 = 0.201 | 0.00035
x2 = 0.302 | 0.00035
x2 = 0.402 | 0.00035
x2 = 0.502 | 0.00035

CCCCCC[n+]1ccn(C)c1.O=S(=O)([N-]S(=O)(=O)C(F)(F)F)C(F)(F)F + O
Settings | electrical conductivity [S/m]
295.15 K, 101 kPa, x2 = 0.233 | 0.29

CCCCCC[n+]1ccn(C)c1.[Br-] + O
viscosity [mPa·s]
Settings | 288.15 K | 298.15 K | 308.15 K | 318.15 K
100 kPa, x1 = 0.0001802 | 1.159 | 0.926 | 0.762 | 0.645
100 kPa, x1 = 0.0007203 | 1.165 | 0.934 | 0.77 | 0.643
100 kPa, x1 = 0.00126 | 1.171 | 0.942 | 0.776 | 0.66
100 kPa, x2 = 0.9008 | – | 6.89 | – | –
101 kPa, x1 = 1.982e-05 | 1.136 | – | 0.722 | –
101 kPa, x1 = 3.243e-05 | 1.138 | 0.891 | 0.723 | –
101 kPa, x1 = 6.667e-05 | 1.142 | 0.896 | 0.726 | –
101 kPa, x1 = 0.001844 | – | 0.948 | – | –
101 kPa, x1 = 0.003654 | – | 1.005 | – | –
101 kPa, x1 = 0.005425 | – | 1.053 | – | –
101 kPa, x1 = 0.007153 | – | 1.101 | – | –

CC[n+]1ccn(C)c1.COS(=O)(=O)[O-] + O
101 kPa
Settings | viscosity [mPa·s]
288.15 K, x2 = 0.0023 | 137.7
288.15 K, x2 = 0.8948 | 4.861
298.15 K, x2 = 0.0023 | 83.9
298.15 K, x2 = 0.0887 | 80.2
308.15 K, x2 = 0.2235 | 42.26
308.15 K, x2 = 0.4163 | 24.36
308.15 K, x2 = 0.8948 | 2.817
318.15 K, x2 = 0.0023 | 37.81
328.15 K, x2 = 0.0023 | 27.34
338.15 K, x2 = 0.4163 | 10.89
338.15 K, x2 = 0.6106 | 5.924

CCn1cc[n+](CC)c1.O=S(=O)([N-]S(=O)(=O)C(F)(F)F)C(F)(F)F + O
100 kPa, x2 = 0.2772
Settings | viscosity [mPa·s]
318.15 K | 11.04
358.15 K | 4.96

Cn1cc[n+](CCO)c1.O=C([O-])C(F)(F)C(F)(F)C(F)(F)C(F)(F)F + O
101 kPa
Settings | electrical conductivity, 298.15 K [S/m] | viscosity, 298.15 K [mPa·s] | viscosity, 308.15 K [mPa·s] | viscosity, 318.15 K [mPa·s]
x1 = 0.01954 | 1.86 | 2.373 | 1.881 | 1.521
x1 = 0.0234 | 1.85 | 2.72 | 2.129 | 1.713
x1 = 0.02752 | 1.82 | 3.1 | 2.403 | 1.914
x1 = 0.02972 | 1.79 | 3.29 | 2.55 | 2.027
x1 = 0.03222 | 1.76 | 3.67 | 2.8 | 2.204
x1 = 0.03772 | 1.67 | 4.35 | 3.3 | 2.59
x1 = 0.04078 | 1.61 | 4.62 | 3.5 | 2.73
x1 = 0.04409 | 1.55 | 4.98 | 3.72 | 2.87
x1 = 0.05152 | 1.42 | 6.18 | 4.57 | 3.51
x1 = 0.05575 | 1.35 | 6.8 | 5 | 3.8
x1 = 0.0602 | 1.27 | 7.62 | 5.55 | 4.2
x1 = 0.06471 | 1.2 | 8.23 | 5.97 | 4.49
x1 = 0.07633 | 1.04 | 9.67 | 6.91 | 5.16
x1 = 0.082 | 0.97 | 10.72 | 7.6 | 5.62
x1 = 0.08895 | 0.89 | 12.37 | 8.65 | 6.3
x1 = 0.09727 | 0.81 | 13.43 | 9.39 | 6.84
x1 = 0.1069 | 0.73 | 15.01 | 10.41 | 7.54
x1 = 0.1275 | 0.6 | 18.85 | 12.87 | 9.24
x1 = 0.1399 | 0.54 | 22.47 | 15.15 | 10.73
x1 = 0.1574 | 0.465 | 26.8 | 17.82 | 12.47
x1 = 0.1727 | 0.415 | 29.6 | 19.6 | 13.63
x1 = 0.2189 | 0.309 | 38.1 | 24.8 | 16.97
x1 = 0.2539 | 0.257 | 43.9 | 28.2 | 19.16
x1 = 0.2952 | 0.213 | 52.2 | 33.1 | 22.22
x1 = 0.3469 | 0.173 | 64.4 | 40.2 | 26.6
x1 = 0.4176 | 0.134 | 86.6 | 52.8 | 34.3
x1 = 0.5205 | 0.097 | 131.5 | 77.3 | 48.9
x1 = 0.7217 | 0.053 | 232 | 129.6 | 78.3
x1 = 1 | 0.0315 | 713 | 351 | 190.8

CCCCCCCCOS(=O)(=O)[O-].CC[n+]1ccn(C)c1 + O + O=S(=O)([O-])[O-].[K+].[K+]
101 kPa, frequency 0.0005 MHz, x2 = 0.7992, x3 = 0.000271
Settings | electrical conductivity [S/m]
283.15 K | 0.565
285.15 K | 0.611
288.15 K | 0.685
291.15 K | 0.763
293.15 K | 0.818
298.15 K | 0.965
303.15 K | 1.13
313.15 K | 1.49
323.15 K | 1.91
333.15 K | 2.43
343.15 K | 2.94
353.15 K | 3.49
358.15 K | 3.81
363.15 K | 4.13

101 kPa, x2 = 0.7992, x3 = 0.000271
Settings | viscosity [mPa·s]
298.15 K | 70.4
303.15 K | 54.1
308.15 K | 42.26
318.15 K | 26.98
328.15 K | 18.12
338.15 K | 12.69

CCCCCCCCOS(=O)(=O)[O-].CC[n+]1ccn(C)c1 + O + O=S(=O)([O-])[O-].[Li+].[Li+]
101 kPa, frequency 0.0005 MHz, x2 = 0.8284, x3 = 0.003275
Settings | electrical conductivity [S/m]
283.15 K | 0.479
285.15 K | 0.518
287.15 K | 0.561
288.15 K | 0.582
289.15 K | 0.605
291.15 K | 0.649
293.15 K | 0.698
298.15 K | 0.83
303.15 K | 0.975
313.15 K | 1.31
323.15 K | 1.68
333.15 K | 2.1
343.15 K | 2.62
348.15 K | 2.87
358.15 K | 3.41
363.15 K | 3.68

101 kPa, x2 = 0.8284, x3 = 0.003275
Settings | viscosity [mPa·s]
293.15 K | 101
296.15 K | 85.2
298.15 K | 76.4
303.15 K | 58.9
308.15 K | 46.1
318.15 K | 29.59
328.15 K | 19.97
338.15 K | 14.04

CCCCCCCCOS(=O)(=O)[O-].CC[n+]1ccn(C)c1 + O + O=S(=O)([O-])[O-].[Na+].[Na+]
101 kPa, frequency 0.0005 MHz, x2 = 0.7732, x3 = 0.0003656
Settings | electrical conductivity [S/m]
283.15 K | 0.483
285.15 K | 0.523
288.15 K | 0.59
291.15 K | 0.655
293.15 K | 0.699
298.15 K | 0.829
303.15 K | 0.977
313.15 K | 1.35
323.15 K | 1.68
333.15 K | 2.11
343.15 K | 2.63
353.15 K | 3.13
358.15 K | 3.41
363.15 K | 3.72

101 kPa, x2 = 0.7732, x3 = 0.0003656
Settings | viscosity [mPa·s]
295.65 K | 86.6
298.15 K | 75.4
303.15 K | 58
308.15 K | 45.4
318.15 K | 29.06
328.15 K | 19.55
338.15 K | 13.72

CCCCCC[n+]1ccn(C)c1.O=S(=O)([N-]S(=O)(=O)C(F)(F)F)C(F)(F)F + O=C1CCCO1
100 kPa, frequency 0.005 MHz
Settings | electrical conductivity [S/m]
293.15 K, x2 = 0.2973 | 0.296
293.15 K, x2 = 0.9001 | 1.11
293.15 K, x2 = 0.9493 | 0.746
298.15 K, x2 = 0.1076 | 0.261
298.15 K, x2 = 0.9493 | 0.819
303.15 K, x2 = 0 | 0.273
303.15 K, x2 = 0.4956 | 0.657
303.15 K, x2 = 0.9001 | 1.34
308.15 K, x2 = 0 | 0.33
308.15 K, x2 = 0.1076 | 0.387
308.15 K, x2 = 0.2973 | 0.514
308.15 K, x2 = 0.9001 | 1.45
313.15 K, x2 = 0.1076 | 0.459
313.15 K, x2 = 0.2973 | 0.596
313.15 K, x2 = 0.6996 | 1.31
313.15 K, x2 = 0.8456 | 1.61
318.15 K, x2 = 0.2973 | 0.687
318.15 K, x2 = 0.8456 | 1.73
318.15 K, x2 = 0.9493 | 1.11
323.15 K, x2 = 0 | 0.553
323.15 K, x2 = 0.1076 | 0.624
323.15 K, x2 = 0.2973 | 0.788
323.15 K, x2 = 0.8001 | 1.85
323.15 K, x2 = 0.8456 | 1.88

CCC[P+](c1ccccc1)(c1ccccc1)c1ccccc1.[Br-] + O=S=O + OCCO
100 kPa
Settings | viscosity [mPa·s]
303.15 K, x2 = 0.01565, x3 = 0.9603 | 20.6
313.15 K, x2 = 0.01166, x3 = 0.9642 | 17
323.15 K, x2 = 0.009018, x3 = 0.9668 | 14.1
333.15 K, x2 = 0.007838, x3 = 0.968 | 11.6
343.15 K, x2 = 0.006951, x3 = 0.9688 | 10.5

CCCCCC[n+]1ccn(C)c1.[Br-] + OC1OC[C@@H](O)[C@H](O)[C@H]1O + O
298.15 K, 101 kPa
Settings | viscosity [mPa·s]
x2 = 0, x1 = 0.001844 | 0.948
x2 = 0, x1 = 0.003654 | 1.005
x2 = 0, x1 = 0.005425 | 1.053
x2 = 0, x1 = 0.007153 | 1.101

CCC[P+](c1ccccc1)(c1ccccc1)c1ccccc1.[Br-] + OCCO
100 kPa, x2 = 0.9756
Settings | viscosity [mPa·s]
303.15 K | 20.5
313.15 K | 17.1
323.15 K | 14
333.15 K | 11.6
343.15 K | 10
353.15 K | 9.1

From the CheMixHub ionic liquid set
